Assays:
Type in all cases: in vivo
[1] = system: adult engorged female ticks (Rhipicephalus microplus); test: Rhipicephalus (Boophilus) microplus injection test; conditions: 168 h, egg deposition monitored after 7 days, read-out: efficacy (infertile eggs); for pest or weed control at 20 µg/tick: 20 μg/tick injected; for pest or weed control at 4 µg/tick: 4 μg/tick injected
Description: Rhipicephalus (Boophilus) microplus—Iniectiontest
(§1) • Solvent: dimethyl sulfoxide
To produce a suitable preparation of active compound, 10 mg of active compound are dissolved in 0.5 mL solvent, and the concentrate is diluted with solvent to the desired concentration.
Five adult engorged female ticks (Rhipicephalus microplus) are injected with 1 μL compound solution into the abdomen. The ticks are transferred into replica plates and incubated in a climate chamber.
After 7 days egg deposition of fertile eggs is monitored. Eggs where fertility is not visible are stored in a climate chamber till hatching after about 42 days. An efficacy of 100% means all eggs are infertile; 0% means all eggs are fertile.

[2] = system: Rhipicephalus (Boophilus) microplus larvae (strain Parkhurst, resistant against synthetic pyrethroids); test: Rhipicephalus (Boophilus) microplus in-vitro contact test, larval cattle tick; conditions: 5 μg/cm^2 (=500 g/ha), after 48 hours, read-out: efficacy (larvae dead or moribund)
Description: Rhipicephalus (Boophilus) microplus—In-Vitro Contact Tests Larval Cattle Tick (Strain Parkhurst, Resistant Against Synthetic Pyrethroids)
(§2) 9 mg compound is solved in 1 mL acetone and diluted with acetone to the desired concentration. 250 μL of the test solution is filled in 25 mL glass test tubes and homogeneously distributed on the inner walls by rotation and tilting on a shaking device (2 h at 30 rpm). With a compound concentration of 900 ppm, an inner surface of 44.7 cm^2 and a homogeneous distribution, a dose of 5 μg/cm^2 is achieved.
After the solvent has evaporated, each test tube is filled with 20-50 cattle tick larvae (Rhipicephalus microplus), closed with a perforated lid and incubated in a horizontal position at 85% relative humidity and 27° C. in an incubator. After 48 hours efficacy is determined. The larvae are patted on the ground of the tubes and negative geotactic behavior is recorded.
An efficacy of 100% means all larvae are dead or moribund; 0% means no larvae are dead or moribund.

[3] = system: adult unfed cat fleas (Ctenocephalides felis); test: Ctenocephalides felis oral test; conditions: 48 h, 100 ppm in cattle blood, after 2 days
Description: Ctenocephalides felis—Oral Test
as §1
To produce a suitable preparation of active compound, 10 mg of active compound are dissolved in 0.5 mL solvent, and the concentrate is diluted with cattle blood to the desired concentration.
Approximately 20 adult unfed cat fleas (Ctenocephalides felts) are placed in flea chambers. The blood chamber, sealed with parafilm on the bottom, are filled with cattle blood supplied with compound solution and placed on the gauze covered top of the flea chamber, so that the fleas are able to suck the blood. The blood chamber is heated to 37° C. whereas the flea chamber is kept at room temperature.
After 2 days mortality in % is determined. 100% means all the fleas have been killed; 0% means none of the fleas have been killed.

[4] = system: fall armyworm larvae (Spodoptera frugiperda); test: Spodoptera frugiperda spray test; conditions: in Zea mays, 168 h
Description: Spodoptera frugiperda—Spray Test
(§3) • Solvent: 78.0 parts by weight acetone • 1.5 parts by weight dimethylformamide • Emulsifier: alkylarylpolyglycol ether
(§4) To produce a suitable preparation of active compound, 1 part by weight of active compound is mixed with the stated amount of solvents and is diluted with water, containing an emulsifier concentration of 1000 ppm, to the desired concentration. Further test concentrations are prepared by dilution with emulsifier containing water.
Maize (Zea mays) leaf sections are sprayed with a preparation of the active ingredient of the desired concentration. Once dry, the leaf sections are infested with fall armyworm larvae (Spodoptera frugiperda). After 7 days mortality in % is determined. 100% means all caterpillars have been killed and 0% means none of the caterpillars have been killed.

[5] = system: larvae of the banded cucumber beetle (Diabrotica balteata); test: Diabrotica balteata spray test; conditions: 168 h, after 7 days, wheat seeds, read-out: efficacy (seedling growth); for pest or weed control at 32 µg/disc, 100 g/ha: 100 g/ha (=32 μg/well)
Description: Diabrotica balteata—Spray Test
(§5) • Solvent: 78.0 parts by weight of acetone • 1.5 parts by weight of dimethylformamide • Emulsifier: alkylarylpolyglycol ether
as §4, with “solvent,” for “solvents”, “and the concentrate” for “and”
Soaked wheat seeds (Triticum aestivum) are placed in a multiple well plate filled with agar and some water and are incubated for 1 day to germinate (5 seeds per well). The germinated wheat seeds are sprayed with a test solution containing the desired concentration of the active ingredient. Afterwards each unit is infected with 10-20 larvae of the banded cucumber beetle (Diabrotica balteata).
After 7 days efficacy in % is determined. 100% means all the seedlings have grown up like in the untreated, uninfected control; 0% means none of the seedlings have grown.

[6] = system: adult brown dog ticks (Rhipicephalus sanguineus); test: Rhipicephalus sanguineus in-vitro contact test, adult brown dog ticks; conditions: 5 μg/cm^2 (=500 g/ha), after 48 hours, read-out: efficacy (ticks dead or moribund)
Description: Rhipicephalus sanguineus—In-Vitro Contact Tests with Adult Brown Dog Ticks
as §2
(§6) After the solvent has evaporated, each test tube is filled with 5-10 adult brown dog ticks (Rhipicephalus sanguineus), closed with a perforated lid and incubated in a lying position at room temperature and relative humidity. After 48 hours efficacy is determined. The ticks are patted on the ground of the tubes and are incubated on a heating plate at 45-50° C. for at most 5 minutes Immotile or uncoordinated moving ticks, which are not able to escape the heat by climbing upwards, are marked as dead or moribund.
An efficacy of 100% means all ticks are dead or moribund; 0% means no ticks are dead or moribund.

[7] = system: green peach aphid (Myzus persicae); test: Myzus persicae spray test; conditions: foliar, 120 h, after 5 days, Chinese cabbage leaf disks
Description: Myzus persicae—Spray Test
as §3, §4
Chinese cabbage (Brassica pekinensis) leaf disks infected with all instars of the green peach aphid (Myzus persicae), are sprayed with a preparation of the active ingredient of the desired concentration.
After 5 days mortality in % is determined. 100% means all aphids have been killed and 0% means none of the aphids have been killed.

[8] = system: larvae of the southern green stink bug (Nezara viridula); test: Nezara viridula spray test; conditions: 96 h, after 4 days, barley plants
Description: Nezara viridula—Spray Test
as §5
as §4, with “solvent,” for “solvents”, “and the concentrate” for “and”
Barley plants (Hordeum vulgare) are sprayed with a test solution containing the desired concentration of the active ingredient and are infested with larvae of the southern green stink bug (Nezara viridula).
After 4 days mortality in % is determined. 100% means all the stink bugs have been killed; 0% means none of the stink bugs have been killed.

[9] = system: adult cat fleas (Ctenocephalides felis); test: Ctenocephalides felis in-vitro contact test, adult cat flea; conditions: 5 μg/cm^2 (=500 g/ha), after 48 hours, read-out: efficacy (fleas dead or moribund)
Description: Ctenocephalides felis—In-Vitro Contact Tests Adult Cat Flea
as §2
as §6, with “cat fleas (Ctenocephalides felis),” for “brown dog ticks (Rhipicephalus sanguineus),”, “fleas” for “ticks”, “fleas,” for “ticks,”
An efficacy of 100% means all fleas are dead or moribund; 0% means no fleas are dead or moribund.

`CC(C#N)c1cccc(C(=O)N[C@@H](C)c2ncnn2-c2ccc(C#N)cn2)c1` (some centres unmarked) [Example I-1] gave a pest or weed control at 20 µg/tick [1] of 100%, a pest or weed control at 5 µg/cm2, 5 µg/cm2 [2] of 90% and a mortality at 100 ppm [3] of 100%.
`C[C@H](NC(=O)c1cccc(CC#N)c1)c1ncnn1-c1ccc(C#N)cn1` [Example I-2] gave a pest or weed control at 4 µg/tick [1] of 100%, a pest or weed control at 20 µg/tick [1] of 100% and a pest or weed control at 5 µg/cm2, 5 µg/cm2 [2] of 80%. The mortality at 100 ppm [3] was 100%.
`Cc1cc(OCC2CC2)cc(C(=O)N[C@@H](C)c2ncnn2-c2ccc(C#N)cn2)c1` [Example I-3, N-{(1S)-1-[1-(5-Cyanopyridin-2-yl)-1H-1,2,4-triazol-5-yl]ethyl}-3-(cyclopropylmethoxy)-5-methylbenzamide] showed a pest or weed control at 4 µg/tick [1] of 100%, a pest or weed control at 20 µg/tick [1] of 100% and a mortality at 100 ppm [3] of 100%. For the same compound, the mortality at 500 g/ha [4] was 100%.
For `Cc1cc(OC2CCC2)cc(C(=O)N[C@@H](C)c2ncnn2-c2ccc(C#N)cn2)c1` [Example I-5, N-{(1S)-1-[1-(5-Cyanopyridin-2-yl)-1H-1,2,4-triazol-5-yl]ethyl}-3-(cyclobutyloxy)-5-methylbenzamide], the pest or weed control at 20 µg/tick [1] was 100%, the pest or weed control at 160 µg/disc, 500 g/ha ([5]; 500 g/ha (=160 μg/well)) was 100% and the mortality at 100 ppm [3] was 100%.
In the case of `Cc1nc([C@H](C)NC(=O)c2cc(OC(C)c3ccc(Cl)cc3)cc(C(F)(F)F)c2)n(-c2ccc(C#N)cn2)n1` (stereo partly drawn) [Example I-15, 3-[1-(4-Chlorophenyl)ethoxy]-N-{(1S)-1-[1-(5-cyanopyridin-2-yl)-3-methyl-1H-1,2,4-triazol-5-yl]ethyl}-5-(trifluoromethyl)benzamide], the pest or weed control at 4 µg/tick [1] was 100%, the pest or weed control at 20 µg/tick [1] was 100% and the pest or weed control at 5 µg/cm2, 5 µg/cm2 [6] was 80%. The pest or weed control at 32 µg/disc, 100 g/ha [5] was 100%.
In the case of `Cc1nc([C@H](C)NC(=O)c2cc(OCC3CCOCC3)cc(C(F)(F)F)c2)n(-c2ccc(C#N)cn2)n1` [Example I-19, N-{(1S)-1-[1-(5-Cyanopyridin-2-yl)-3-methyl-1H-1,2,4-triazol-5-yl]ethyl}-3-(tetrahydro-2H-pyran-4-ylmethoxy)-5-(trifluoromethyl)benzamide], the pest or weed control at 4 µg/tick [1] was 100%, the pest or weed control at 5 µg/cm2, 5 µg/cm2 [2] was 100% and the mortality at 100 ppm [3] was 80%.
`Cc1nc([C@H](C)NC(=O)c2cc(OC3CCOCC3)cc(C(F)(F)F)c2)n(-c2ccc(C#N)cn2)n1` [Example I-21, N-{(1S)-1-[1-(5-Cyanopyridin-2-yl)-3-methyl-1H-1,2,4-triazol-5-yl]ethyl}-3-(tetrahydro-2H-pyran-4-yloxy)-5-(trifluoromethyl)benzamide] showed a pest or weed control at 5 µg/cm2, 5 µg/cm2 [2] of 100%, a pest or weed control at 5 µg/cm2, 5 µg/cm2 [6] of 80% and a mortality at 100 g/ha [4] of 83%.
`C[C@H](NC(=O)c1cc(C(F)(F)F)cc(C(C)(C)C#N)c1)c1ncnn1-c1cnc(C#N)cn1` [Example I-58] showed a mortality at 100 g/ha [7] of 90%, a mortality at 100 g/ha [8] of 100% and a mortality at 500 g/ha [8] of 100%. It also gave a pest or weed control at 5 µg/cm2, 5 µg/cm2 [2] of 100%, a pest or weed control at 5 µg/cm2, 5 µg/cm2 [6] of 80% and a pest or weed control at 32 µg/disc, 100 g/ha [5] of 100%. The pest or weed control at 5 µg/cm2, 5 µg/cm2 [9] was 100% and the mortality at 100 g/ha [4] was 100%.
With `C[C@H](NC(=O)c1cc(Br)cc(C(F)(F)C2CC2)c1)c1ncnn1-c1cnc(C#N)cn1` [Example I-59] the mortality at 100 g/ha [7] was 90%, the mortality at 100 g/ha [8] was 100% and the mortality at 500 g/ha [8] was 100%. It also gave a pest or weed control at 5 µg/cm2, 5 µg/cm2 [2] of 100%, a pest or weed control at 5 µg/cm2, 5 µg/cm2 [6] of 100% and a pest or weed control at 32 µg/disc, 100 g/ha [5] of 100%. The pest or weed control at 5 µg/cm2, 5 µg/cm2 [9] was 80% and the mortality at 100 g/ha [4] was 100%.
In the case of `C[C@H](NC(=O)c1cc(Br)cc(OC(C)(C)C#N)c1)c1ncnn1-c1ncc(C#N)s1` [Example I-60], the pest or weed control at 5 µg/cm2, 5 µg/cm2 [2] was 100%, the pest or weed control at 32 µg/disc, 100 g/ha [5] was 100% and the pest or weed control at 5 µg/cm2, 5 µg/cm2 [9] was 80%. It also gave a mortality at 100 g/ha [4] of 100%.

From patent publication US12653190B2, “Heteroaryl-triazole compounds as pesticides” (Bayer Aktiengesellschaft, priority 2020, dated 2026)
